Measurements published in patent US10363239B2, “Method for inhibiting growth of cancer cells” (Pain Therapeutics, Inc., priority 2013, dated 2019).
Where two headings read alike, the source gives them in different places.

Assays:
mu opiate receptor (MOR) = experiment: MOR agonist activity using [35S]GTPγS binding assay in striatal membranes; assay type: biochemical; settings: for % DAMGO (0.1 μM) / % DAMGO (1 μM): relative to DAMGO; for % DAMGO + BFNA: 1 μM compound + β-FNA, relative to DAMGO + BFNA
Procedure, shortened: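 Striatal membranes (200 μg) were preincubated 5 min at 30 °C in HEPES pH 7.5 with 100 mM NaCl, 1 mM MgCl2 and 0.5 nM [35S]GTPγS, then 5 min more with 0.1–10 μM compound. Gαo was immunoprecipitated and bound radioactivity counted by scintillation.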

[1] = biological target: FLNA pentapeptide of SEQ ID NO: 1 (Bn-VAKGL) (Homo sapiens, UniProt P21333); experiment: FITC-NLX-based FLNA screening assay (inhibition of FITC-naloxone binding to Bn-VAKGL on streptavidin plates); settings: 10 nM FITC-NLX
[2] = Series B, 0.1 μM compound, [35S]GTPγS binding to Gαo, striatal membranes
[3] = Series B, 1 μM compound + 1 μM β-FNA
[4] = Series B, 1 μM compound, [35S]GTPγS binding to Gαo, striatal membranes
[5] = FLNA-binding compound 0.01 μM, read-out: Percent Binding Inhibition
[6] = FLNA-binding compound 0.1 μM, read-out: Percent Binding Inhibition
[7] = FLNA-binding compound 1 μM, read-out: Percent Binding Inhibition
[8] = read-out: Percent Binding Inhibition, FLNA-binding compound 0.01 μM
[9] = read-out: Percent Binding Inhibition, FLNA-binding compound 0.1 μM
[10] = read-out: Percent Binding Inhibition, FLNA-binding compound 1 μM
[11] = Series C-1, 0.1 μM compound, [35S]GTPγS binding to Gαo, striatal membranes
[12] = Series C-1, 1 μM compound + 1 μM β-FNA
[13] = Series C-1, 1 μM compound, [35S]GTPγS binding to Gαo, striatal membranes

SMILES	% DAMGO (0.1 μM) (mu opiate receptor (MOR); Series B, 0.1 μM compound) [%]	MOR agonist activity, percent [35S]GTPγS binding at the stated compound concentration (mu opiate receptor (MOR); [2]) [%]	MOR agonist activity, percent [35S]GTPγS binding at the stated compound concentration (mu opiate receptor (MOR); [3]) [%]	% DAMGO + BFNA (mu opiate receptor (MOR); Series B) [%]	% DAMGO (1 μM) (mu opiate receptor (MOR); Series B, 1 μM compound) [%]	MOR agonist activity, percent [35S]GTPγS binding at the stated compound concentration (mu opiate receptor (MOR); [4]) [%]	inhibition at 0.01 µM [1, 5] [%]	inhibition at 0.1 µM [1, 6] [%]	inhibition at 1 µM [1, 7] [%]	inhibition at 0.01 µM [1, 8] [%]	inhibition at 0.1 µM [1, 9] [%]	inhibition at 1 µM [1, 10] [%]	% DAMGO (0.1 μM) (mu opiate receptor (MOR); Series C-1, 0.1 μM compound) [%]	Concentration of FLNA-Binding Compound as Agonist 0.1 μM (mu opiate receptor (MOR); [11]) [%]	Concentration of FLNA-Binding Compound as Agonist 1 μM + BFNA (mu opiate receptor (MOR); [12]) [%]	% DAMGO + BFNA (mu opiate receptor (MOR); Series C-1) [%]	% DAMGO (1 μM) (mu opiate receptor (MOR); Series C-1, 1 μM compound) [%]	Concentration of FLNA-Binding Compound as Agonist 1 μM (mu opiate receptor (MOR); [13]) [%]
COc1c2c(cc3c1C(CC(=O)CCc1ccccc1)N(C)CC3)OCO2 (stereo not drawn) [Compound B0050]	58.1	98.2	48.8	294.0	96.4	211.0	29.2	34.5	39.8									
COc1c2c(cc3c1C(CC(O)CCc1ccccc1)N(C)CC3)OCO2 (stereo not drawn) [Compound B0051]	68.4	115.6	43.8	263.9	76.7	167.9	29.9	35.7	43.7									
COc1c2c(cc3c1C(CC(O)CCc1ccccc1)[N+](C)(C)CC3)OCO2 (stereo not drawn) [Compound B0052]	58.1	98.2	40.9	246.4	69.3	151.7				30.2	39.1	44.3						
COc1c2c(cc3c1C(CC(=O)Cc1ccccc1C)N(C)CC3)OCO2 (stereo not drawn) [Compound B0053]	94.8	160.2	134.3	809.0	137.0	299.8				33.1	37.3	47.6						
Cc1ccc(S(=O)(=O)N2CCC3(CC2)OCCN3S(=O)(=O)c2ccc(C)cc2)cc1 [Compound C0001]										34.8	42.9	51.3	75.2	129.3	33.9	52.9	66.6	184.3
COc1cccc(S(=O)(=O)N2CCC3(CC2)OCCN3S(=O)(=O)c2cccc(OC)c2)c1 [Compound C0002]										38.4	45.6	42.8	51.4	88.4	3.9	6.1	33.9	93.8
COc1ccccc1S(=O)(=O)N1CCC2(CC1)OCCN2S(=O)(=O)c1ccccc1OC [Compound C0003]										38.3	45.3	48.8	91.9	162.3	107.7	163.9	83.3	215.9
N#Cc1ccccc1S(=O)(=O)N1CCC2(CC1)OCCN2S(=O)(=O)c1ccccc1C#N [Compound C0004]										37.6	42.3	44.7	72.1	122.0	65.8	99.7	85.4	228.4
O=S(=O)(c1cccc(OC(F)(F)F)c1)N1CCC2(CC1)OCCN2S(=O)(=O)c1cccc(OC(F)(F)F)c1 [Compound C0005]										35.2	44.5	51.5	105.4	180.4	166.4	319.4	85.1	227.2
O=S(=O)(c1ccc(OC(F)(F)F)cc1)N1CCC2(CC1)OCCN2S(=O)(=O)c1ccc(OC(F)(F)F)cc1 [Compound C0006]										41.6	46.8	51.8	70.6	121.5	4.6	7.2	73.8	204.0
CC(C)c1ccc(S(=O)(=O)N2CCC3(CC2)OCCN3S(=O)(=O)c2ccc(C(C)C)cc2)cc1 [Compound C0007]										40.5	46.3	48.9	46.0	79.1	10.9	17.0	70.5	195.0
N#Cc1ccc(S(=O)(=O)N2CCC3(CC2)OCCN3S(=O)(=O)c2ccc(C#N)cc2)cc1 [Compound C0008]							42.2	52.3	54.4				41.4	71.2	2.8	4.4	72.9	201.6
CS(=O)(=O)c1ccc(S(=O)(=O)N2CCC3(CC2)OCCN3S(=O)(=O)c2ccc(S(C)(=O)=O)cc2)cc1 [Compound C0009]										41.7	49	53.9	85.1	146.3	26.4	41.2	92.6	256.2
O=S(=O)(c1ccc(-c2ccccc2)cc1)N1CCC2(CC1)OCCN2S(=O)(=O)c1ccc(-c2ccccc2)cc1 [Compound C0010]										39.8	42.7	47.1	80.7	136.5	89.1	135.0	114.9	307.0
